ChEMBL document CHEMBL3808371, “Design, synthesis and biological evaluation of diaziridinyl quinone isoxazole hybrids” (Eur J Med Chem, 2016)
Values after ≈ are worked out from the molar mass of the structure shown.

Key:
A549 = assay: Cytotoxicity against human A549 cells after 72 hrs by XTT assay; format: functional, cell-based; conditions: A549, 72 h
[1] = Cytotoxicity against human PC3 cells after 72 hrs by XTT assay; format: functional, cell-based; conditions: PC-3, 72 h
Staphylococcus aureus [2] = assay: Antimicrobial activity against Staphylococcus aureus MTCC 96 after 24 hrs by well diffusion method; format: functional; conditions: MTCC 96, 24 h
Bacillus subtilis [3] = assay: Antimicrobial activity against Bacillus subtilis MTCC 121 after 24 hrs by well diffusion method; format: functional; conditions: MTCC 121, 24 h
Staphylococcus aureus [4] = assay: Antimicrobial activity against Staphylococcus aureus MLS16 MTCC 2940 after 24 hrs by well diffusion method; format: functional; conditions: MLS16 MTCC 2940, 24 h
Micrococcus luteus [5] = assay: Antimicrobial activity against Micrococcus luteus MTCC 2470 after 24 hrs by well diffusion method; format: functional; conditions: MTCC 2470, 24 h
Raoultella planticola [6] = assay: Antimicrobial activity against Klebsiella planticola MTCC 530 after 24 hrs by well diffusion method; format: functional; conditions: MTCC 530, 24 h
Escherichia coli = assay: Antimicrobial activity against Escherichia coli MTCC 739 after 24 hrs by well diffusion method; format: functional; conditions: MTCC 739, 24 h
Pseudomonas aeruginosa = assay: Antimicrobial activity against Pseudomonas aeruginosa MTCC 2453 after 24 hrs by well diffusion method; format: functional; conditions: MTCC 2453, 24 h
Candida albicans = assay: Antimicrobial activity against Candida albicans MTCC 3017 after 24 hrs by well diffusion method; format: functional; conditions: MTCC 3017, 24 h
Bacillus subtilis [7] = assay: Bactericidal activity against Bacillus subtilis MTCC 121 after 24 hrs by serial dilution method; format: functional; conditions: MTCC 121, 24 h
Staphylococcus aureus [8] = assay: Bactericidal activity against Staphylococcus aureus MTCC 96 after 24 hrs by serial dilution method; format: functional; conditions: MTCC 96, 24 h
Staphylococcus aureus [9] = assay: Bactericidal activity against Staphylococcus aureus MLS16 MTCC 2940 after 24 hrs by serial dilution method; format: functional; conditions: MLS16 MTCC 2940, 24 h
Micrococcus luteus [10] = assay: Bactericidal activity against Micrococcus luteus MTCC 2470 after 24 hrs by serial dilution method; format: functional; conditions: MTCC 2470, 24 h
Raoultella planticola [11] = assay: Bactericidal activity against Klebsiella planticola MTCC 530 after 24 hrs by serial dilution method; format: functional; conditions: MTCC 530, 24 h
Bacillus subtilis [12] = assay: Antibiofilm activity against Bacillus subtilis MTCC 121 after 24 hrs by crystal violet staining based assay; format: functional, organism-based; conditions: MTCC 121, 24 h
Micrococcus luteus [13] = assay: Antibiofilm activity against Micrococcus luteus MTCC 2470 after 24 hrs by crystal violet staining based assay; format: functional, organism-based; conditions: MTCC 2470, 24 h

O=C1C=C(N2CC2)C(=O)C(c2cc(-c3ccc(C(=O)N4CCC(C(F)(F)F)CC4)s3)on2)=C1N1CC1
IC50 (A549): 3.7 µM | IC50 [1]: 2 µM | MIC (Staphylococcus aureus [2]): > 125 µg/mL | MIC (Bacillus subtilis [3]): 3.9 µg/mL (≈ 7.52 µM) | MIC (Staphylococcus aureus [4]): > 125 µg/mL | MIC (Micrococcus luteus [5]): 31.2 µg/mL (≈ 60.2 µM) | MIC (Raoultella planticola [6]): > 125 µg/mL | MIC (Escherichia coli): > 125 µg/mL | MIC (Pseudomonas aeruginosa): > 125 µg/mL | MIC (Candida albicans): 31.2 µg/mL (≈ 60.2 µM) | MBC (Bacillus subtilis [7]): 7.8 µg/mL (≈ 15 µM) | MBC (Staphylococcus aureus [8]): > 125 µg/mL | MBC (Staphylococcus aureus [9]): > 125 µg/mL | MBC (Micrococcus luteus [10]): 62.5 µg/mL (≈ 121 µM) | MBC (Raoultella planticola [11]): > 125 µg/mL | IC50 (Bacillus subtilis [12]): 2.1 µM | IC50 (Micrococcus luteus [13]): 16.2 µM

COc1ccc(OC)c(-c2cc(-c3ccc(C(=O)N(C)C)s3)on2)c1
IC50 (A549): > 30 µM | IC50 [1]: > 30 µM

O=C1C=C(N2CC2)C(=O)C(c2cc(-c3ccc(C(=O)NCC4CC4)s3)on2)=C1N1CC1
IC50 (A549): 2.1 µM | IC50 [1]: 3.5 µM | MIC (Staphylococcus aureus [2]): > 125 µg/mL | MIC (Bacillus subtilis [3]): 15.6 µg/mL (≈ 35.7 µM) | MIC (Staphylococcus aureus [4]): > 125 µg/mL | MIC (Micrococcus luteus [5]): > 125 µg/mL | MIC (Raoultella planticola [6]): > 125 µg/mL | MIC (Escherichia coli): > 125 µg/mL | MIC (Pseudomonas aeruginosa): > 125 µg/mL | MIC (Candida albicans): 15.6 µg/mL (≈ 35.7 µM) | MBC (Bacillus subtilis [7]): 31.2 µg/mL (≈ 71.5 µM) | MBC (Staphylococcus aureus [8]): > 125 µg/mL | MBC (Staphylococcus aureus [9]): > 125 µg/mL | MBC (Micrococcus luteus [10]): > 125 µg/mL | MBC (Raoultella planticola [11]): > 125 µg/mL | IC50 (Bacillus subtilis [12]): 9.8 µM

CCN(CC)C(=O)c1ccc(-c2cc(C3=C(N4CC4)C(=O)C=C(N4CC4)C3=O)no2)s1
IC50 (A549): 0.9 µM | IC50 [1]: 0.5 µM | MIC (Staphylococcus aureus [2]): 7.8 µg/mL (≈ 17.8 µM) | MIC (Bacillus subtilis [3]): 7.8 µg/mL (≈ 17.8 µM) | MIC (Staphylococcus aureus [4]): 7.8 µg/mL (≈ 17.8 µM) | MIC (Micrococcus luteus [5]): 15.6 µg/mL (≈ 35.6 µM) | MIC (Raoultella planticola [6]): 15.6 µg/mL (≈ 35.6 µM) | MIC (Escherichia coli): > 125 µg/mL | MIC (Pseudomonas aeruginosa): > 125 µg/mL | MIC (Candida albicans): 15.6 µg/mL (≈ 35.6 µM) | MBC (Bacillus subtilis [7]): 31.2 µg/mL (≈ 71.2 µM) | MBC (Staphylococcus aureus [8]): 15.6 µg/mL (≈ 35.6 µM) | MBC (Staphylococcus aureus [9]): 31.2 µg/mL (≈ 71.2 µM) | MBC (Micrococcus luteus [10]): 62.5 µg/mL (≈ 143 µM) | MBC (Raoultella planticola [11]): 62.5 µg/mL (≈ 143 µM)

O=C1C=CC(=O)C(c2cc(-c3ccc(C(=O)N4CCC(C(F)(F)F)CC4)s3)on2)=C1
IC50 (A549): > 30 µM | IC50 [1]: > 30 µM

COc1ccc(OC)c(-c2cc(-c3ccc(C(=O)N4CCCC4)s3)on2)c1
IC50 (A549): > 30 µM | IC50 [1]: > 30 µM

COc1ccc(OC)c(-c2cc(-c3ccc(C(=O)N(C)Cc4ccccc4)s3)on2)c1
IC50 (A549): > 30 µM | IC50 [1]: > 30 µM

CN(Cc1ccccc1)C(=O)c1ccc(-c2cc(C3=C(N4CC4)C(=O)C=C(N4CC4)C3=O)no2)s1
IC50 (A549): 7.3 µM | IC50 [1]: 1.2 µM | MIC (Staphylococcus aureus [2]): 31.2 µg/mL (≈ 64.1 µM) | MIC (Bacillus subtilis [3]): 31.2 µg/mL (≈ 64.1 µM) | MIC (Staphylococcus aureus [4]): 62.5 µg/mL (≈ 128 µM) | MIC (Micrococcus luteus [5]): 15.6 µg/mL (≈ 32.1 µM) | MIC (Raoultella planticola [6]): > 125 µg/mL | MIC (Escherichia coli): > 125 µg/mL | MIC (Pseudomonas aeruginosa): > 125 µg/mL | MIC (Candida albicans): > 125 µg/mL | MBC (Bacillus subtilis [7]): 125 µg/mL (≈ 257 µM) | MBC (Staphylococcus aureus [8]): 62.5 µg/mL (≈ 128 µM) | MBC (Staphylococcus aureus [9]): 125 µg/mL (≈ 257 µM) | MBC (Micrococcus luteus [10]): 62.5 µg/mL (≈ 128 µM) | MBC (Raoultella planticola [11]): > 125 µg/mL

CCN(CC)C(=O)c1ccc(-c2cc(-c3cc(OC)ccc3OC)no2)s1
IC50 (A549): 11 µM | IC50 [1]: > 30 µM

COc1ccc(OC)c(-c2cc(-c3ccc(C(=O)N4CCC(C(F)(F)F)CC4)s3)on2)c1
IC50 (A549): > 30 µM | IC50 [1]: > 30 µM

COc1ccc(CN(C)C(=O)c2ccc(-c3cc(-c4cc(OC)ccc4OC)no3)s2)cc1
IC50 (A549): > 30 µM | IC50 [1]: > 30 µM

COc1ccc(OC)c(-c2cc(-c3ccc(C(=O)N4CCCCC4)s3)on2)c1
IC50 (A549): > 30 µM | IC50 [1]: > 30 µM

COc1ccc(OC)c(-c2cc(-c3ccc(C(=O)N(C)Cc4ccc(F)cc4)s3)on2)c1
IC50 (A549): > 30 µM | IC50 [1]: > 30 µM

CN(C)C(=O)c1ccc(-c2cc(C3=CC(=O)C=CC3=O)no2)s1
IC50 (A549): > 30 µM | IC50 [1]: 7.2 µM

O=C1C=CC(=O)C(c2cc(-c3ccc(C(=O)NCC4CC4)s3)on2)=C1
IC50 (A549): > 30 µM | IC50 [1]: > 30 µM
